Literature values in patent US20230383297A1, “NOVEL TARGETS FOR REACTIVATION OF PRADER-WILLI SYNDROME-ASSOCIATED GENES” (Duke University, priority 2020, published 2023).

Tested on: PWS cells
Conditions: also causes DNA demethylation genome-wide

## Nc1ncn([C@H]2C[C@H](O)[C@@H](CO)O2)c(=O)n1 [5-Aza-DC]
  maternal gene expression from the PWS locus: reactivate maternal gene expression from the PWS locus
